# Experimental data taken from ChEMBL document CHEMBL3621049, “Imidazole derivatives show anticancer potential by inducing apoptosis and cellular senescence” (2014).
# Calls of active or inactive are those of the source. No cut-off for these calls is given here.
# Columns and labels:
# [1] = system: MCF7; experiment: Growth inhibition of human MCF7 cells at 10 uM by sulforhodamine B assay; format: functional, cell-based
# [2] = system: U-251; experiment: Growth inhibition of human U251 cells at 10 uM by sulforhodamine B assay; format: functional, cell-based
# [3] = system: OVCAR-3; experiment: Growth inhibition of human OVCAR3 cells at 10 uM by sulforhodamine B assay; format: functional, cell-based
# [4] = system: SK-MEL-28; experiment: Growth inhibition of human SK-MEL-28 cells at 10 uM by sulforhodamine B assay; format: functional, cell-based
# [5] = system: ACHN; experiment: Growth inhibition of human ACHN cells at 10 uM by sulforhodamine B assay; format: functional, cell-based
# [6] = system: IGROV-1; experiment: Growth inhibition of human IGROV1 cells at 10 uM by sulforhodamine B assay; format: functional, cell-based
# [7] = system: A549; experiment: Cell cycle arrest in human A549 cells assessed as accumulation at S phase at 10 uM after 48 hrs using propidium iodide staining by flow cytometer analysis (reference value: 6.67%); format: functional
# [8] = system: SN12C; experiment: Growth inhibition of human SN12C cells at 10 uM by sulforhodamine B assay; format: functional, cell-based
# [9] = system: A549; experiment: Growth inhibition of human A549/ATCC cells at 10 uM by sulforhodamine B assay; format: functional, cell-based
# [10] = system: A549; experiment: Cell cycle arrest in human A549 cells assessed as accumulation at G2/M phase at 20 uM after 48 hrs using propidium iodide staining by flow cytometer analysis (reference value: 13.02%); format: functional
# [11] = system: KM12; experiment: Growth inhibition of human KM12 cells at 10 uM by sulforhodamine B assay; format: functional, cell-based
# [12] = system: NCI-H460; experiment: Growth inhibition of human NCI-H460 cells at 10 uM by sulforhodamine B assay; format: functional, cell-based
# [13] = system: A549; experiment: Cell cycle arrest in human A549 cells assessed as accumulation at G0/G1 phase at 10 uM after 48 hrs using propidium iodide staining by flow cytometer analysis (reference value: 79.34%); format: functional
# [14] = system: A549; experiment: Induction of cellular senescence in human A549 cells assessed as increase of endogenous level of beta-galactosidase by […]/X-gal staining; format: functional, cell-based
# [15] = system: A549; experiment: Cell cycle arrest in human A549 cells assessed as accumulation at sub-G1 phase at 5 uM after 48 hrs using propidium iodide staining by flow cytometer analysis (reference value: 0.96%); format: functional
# [16] = system: NCI/ADR-RES; experiment: Growth inhibition of human NCI/ADR-RES cells at 10 uM by sulforhodamine B assay; format: functional, cell-based
# [17] = system: A549; experiment: Cell cycle arrest in human A549 cells assessed as accumulation at sub-G1 phase at 20 uM after 48 hrs using propidium iodide staining by flow cytometer analysis (reference value: 0.96%); format: functional
# [18] = system: NCI-H522; experiment: Growth inhibition of human NCI-H522 cells at 10 uM by sulforhodamine B assay; format: functional, cell-based
# [19] = system: A549; experiment: Cell cycle arrest in human A549 cells assessed as accumulation at G0/G1 phase at 20 uM after 48 hrs using propidium iodide staining by flow cytometer analysis (reference value: 79.34%); format: functional
# [20] = system: UACC-62; experiment: Growth inhibition of human UACC62 cells at 10 uM by sulforhodamine B assay; format: functional, cell-based
# [21] = system: MOLT-4; experiment: Growth inhibition of human MOLT4 cells at 10 uM by sulforhodamine B assay; format: functional, cell-based
# [22] = system: RXF 393; experiment: Growth inhibition of human RXF393 cells at 10 uM by sulforhodamine B assay; format: functional, cell-based
# [23] = system: COLO 205; experiment: Growth inhibition of human COLO205 cells at 10 uM by sulforhodamine B assay; format: functional, cell-based
# [24] = system: NCI-H23; experiment: Growth inhibition of human NCI-H23 cells at 10 uM by sulforhodamine B assay; format: functional, cell-based
# [25] = system: OVCAR-8; experiment: Growth inhibition of human OVCAR8 cells at 10 uM by sulforhodamine B assay; format: functional, cell-based
# [26] = system: MDA-MB-231; experiment: Growth inhibition of human MDA-MB-231 cells at 10 uM by sulforhodamine B assay; format: functional, cell-based
# [27] = system: 786-0; experiment: Growth inhibition of human 786-0 cells at 10 uM by sulforhodamine B assay; format: functional, cell-based
# [28] = system: A549; experiment: Induction of apoptosis in human A549 cells assessed as activation of caspase; format: functional, cell-based
# [29] = system: HOP-62; experiment: Growth inhibition of human HOP62 cells at 10 uM by sulforhodamine B assay; format: functional, cell-based
# [30] = system: Malme-3M; experiment: Growth inhibition of human MALME-3M cells at 10 uM by sulforhodamine B assay; format: functional, cell-based
# [31] = system: HCC 2998; experiment: Growth inhibition of human HCC2998 cells at 10 uM by sulforhodamine B assay; format: functional, cell-based
# [32] = system: HOP-92; experiment: Growth inhibition of human HOP92 cells at 10 uM by sulforhodamine B assay; format: functional, cell-based
# [33] = system: UO-31; experiment: Growth inhibition of human UO31 cells at 10 uM by sulforhodamine B assay; format: functional, cell-based
# [34] = system: A549; experiment: Cell cycle arrest in human A549 cells assessed as accumulation at G2/M phase at 10 uM after 48 hrs using propidium iodide staining by flow cytometer analysis (reference value: 13.02%); format: functional
# [35] = system: A549; experiment: Inhibition of cell migration in human A549 cells assessed as cells migrating into scratch area after 24 hrs by wound healing assay; format: functional, cell-based
# [36] = system: HL-60(TB); experiment: Growth inhibition of human HL-60(TB) cells at 10 uM by sulforhodamine B assay; format: functional, cell-based
# [37] = system: SF-295; experiment: Growth inhibition of human SF295 cells at 10 uM by sulforhodamine B assay; format: functional, cell-based
# [38] = system: M14; experiment: Growth inhibition of human M14 cells at 10 uM by sulforhodamine B assay; format: functional, cell-based
# [39] = system: SR; experiment: Growth inhibition of human SR cells at 10 uM by sulforhodamine B assay; format: functional, cell-based
# [40] = system: OVCAR-5; experiment: Growth inhibition of human OVCAR5 cells at 10 uM by sulforhodamine B assay; format: functional, cell-based
# [41] = system: CCRF-CEM; experiment: Growth inhibition of human CCRF-CEM cells at 10 uM by sulforhodamine B assay; format: functional, cell-based
# [42] = system: BT-549; experiment: Growth inhibition of human BT549 cells at 10 uM by sulforhodamine B assay; format: functional, cell-based
# [43] = system: A498; experiment: Growth inhibition of human A498 cells at 10 uM by sulforhodamine B assay; format: functional, cell-based
# [44] = system: LOX IMVI; experiment: Growth inhibition of human LOXIMVI cells at 10 uM by sulforhodamine B assay; format: functional, cell-based
# [45] = system: HCT-116; experiment: Growth inhibition of human HCT116 cells at 10 uM by sulforhodamine B assay; format: functional, cell-based
# [46] = system: SK-OV-3; experiment: Growth inhibition of human SKOV3 cells at 10 uM by sulforhodamine B assay; format: functional, cell-based
# [47] = system: A549; experiment: Cytotoxicity against human A549 cells assessed as decrease in cell viability at 10 uM after 24 hrs by MTT assay relative to control; format: functional
# [48] = system: T47D; experiment: Growth inhibition of human T47D cells at 10 uM by sulforhodamine B assay; format: functional, cell-based
# [49] = system: A549; experiment: Inhibition of colony formation in human A549 cells assessed as change in colony morphology after 14 days using crystal violet staining by soft agar assay; format: functional, cell-based
# [50] = system: SW-620; experiment: Growth inhibition of human SW620 cells at 10 uM by sulforhodamine B assay; format: functional, cell-based
# [51] = system: A549; experiment: Induction of morphological changes in human A549 cells at 10 to 50 uM; format: functional, cell-based
compound,measurement,setting,value
COc1ccc(-c2nc(-c3ccccn3)c(-c3ccccn3)n2CC(C)C)cc1OC1CCCC1,growth inhibition (GI),[1],Active
same,growth inhibition (GI),[2],Active
same,growth inhibition (GI),[3],Active
same,growth inhibition (GI),[4],Active
same,growth inhibition (GI),[5],Active
same,growth inhibition (GI),[6],Active
same,Activity,[7],9.95%
same,growth inhibition (GI),[8],Active
same,growth inhibition (GI),[9],Active
same,Activity,[10],4.51%
same,growth inhibition (GI),[11],Active
same,growth inhibition (GI),[12],Active
same,Activity,[13],75.7%
same,Activity,[14],Dose-dependent effect
same,Activity,[15],2.49%
same,growth inhibition (GI),[16],Active
same,Activity,[17],19.34%
same,growth inhibition (GI),[18],Active
same,Activity,[19],69.52%
same,growth inhibition (GI),[20],Active
same,growth inhibition (GI),[21],Active
same,growth inhibition (GI),[22],Active
same,growth inhibition (GI),[23],Active
same,growth inhibition (GI),[24],Active
same,growth inhibition (GI),[25],Active
same,growth inhibition (GI),[26],Active
same,growth inhibition (GI),[27],Active
same,Activity,[28],inactive
same,growth inhibition (GI),[29],Active
same,growth inhibition (GI),[30],Active
same,growth inhibition (GI),[31],Active
same,growth inhibition (GI),[32],Active
same,growth inhibition (GI),[33],Active
same,Activity,[34],6.73%
same,inhibition,[35],Dose-dependent effect
same,growth inhibition (GI),[36],Active
same,growth inhibition (GI),[37],Active
same,growth inhibition (GI),[38],Active
same,growth inhibition (GI),[39],Active
same,growth inhibition (GI),[40],Active
same,growth inhibition (GI),[41],Active
same,growth inhibition (GI),[42],Active
same,growth inhibition (GI),[43],Active
same,growth inhibition (GI),[44],Active
same,growth inhibition (GI),[45],Active
same,growth inhibition (GI),[46],Active
same,fold change (FC),[47],2
same,growth inhibition (GI),[48],Active
same,inhibition,[49],Active
same,growth inhibition (GI),[50],Active
same,Activity,[51],Active
